One assay addresses T1, hA1 AR (Homo sapiens, UniProt P30542).
T1 sequence (P30542 1-326): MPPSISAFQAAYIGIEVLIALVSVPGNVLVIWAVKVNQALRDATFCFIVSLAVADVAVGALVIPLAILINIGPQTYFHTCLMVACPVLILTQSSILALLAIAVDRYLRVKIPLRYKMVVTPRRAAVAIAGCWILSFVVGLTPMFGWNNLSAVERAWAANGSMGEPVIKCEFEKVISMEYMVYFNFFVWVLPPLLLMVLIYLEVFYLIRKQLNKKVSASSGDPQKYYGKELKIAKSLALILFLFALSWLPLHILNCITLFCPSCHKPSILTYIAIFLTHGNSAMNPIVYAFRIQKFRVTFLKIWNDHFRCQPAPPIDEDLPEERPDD
The experiment in a line: Radioligand binding at hA1 AR.

In another assay the target is T2, hA3 AR (Homo sapiens, UniProt P0DMS8).
T2 sequence (P0DMS8 1-318): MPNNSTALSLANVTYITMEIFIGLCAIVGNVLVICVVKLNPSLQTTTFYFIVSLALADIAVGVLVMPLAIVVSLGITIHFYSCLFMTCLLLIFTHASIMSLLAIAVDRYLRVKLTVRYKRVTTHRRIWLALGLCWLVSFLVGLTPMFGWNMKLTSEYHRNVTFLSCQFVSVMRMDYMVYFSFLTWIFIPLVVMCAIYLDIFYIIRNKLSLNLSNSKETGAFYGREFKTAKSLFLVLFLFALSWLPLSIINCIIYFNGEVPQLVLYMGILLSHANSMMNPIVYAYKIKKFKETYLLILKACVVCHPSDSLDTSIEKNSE
The experiment in a line: Radioligand binding at hA3 AR.

Another assay deals with T3, hA2B AR (Homo sapiens, UniProt P29275).
T3 sequence (P29275 1-332): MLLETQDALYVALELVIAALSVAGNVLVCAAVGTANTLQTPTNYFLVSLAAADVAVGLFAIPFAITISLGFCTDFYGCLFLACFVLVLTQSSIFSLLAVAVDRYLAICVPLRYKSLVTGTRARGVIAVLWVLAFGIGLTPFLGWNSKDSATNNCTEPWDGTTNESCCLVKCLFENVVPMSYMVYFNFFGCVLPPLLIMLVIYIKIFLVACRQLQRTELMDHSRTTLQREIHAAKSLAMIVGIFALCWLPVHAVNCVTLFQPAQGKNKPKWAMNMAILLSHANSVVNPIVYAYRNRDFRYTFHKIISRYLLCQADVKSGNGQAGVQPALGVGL
Put plainly: Cyclic AMP accumulation assay, CHO cells expressing hA2B AR. In kind it is cell-based. Particulars: at 10 μM, in comparison to full agonist NECA (100%).

Another assay concerns human washed platelets. Put plainly: Inhibition of ADP-induced aggregation of human washed platelets. In kind it is cell-based. The settings on record: Platelet, read-out: IC50, inhibition of platelet aggregation.
Where [1] appears, read: inhibition of radioligand binding at 1 μM.

Data on two molecules can be found in paper PMC2891302 (Bioconjugate chemistry, 2009).

Turning to `CCNC(=O)[C@H]1O[C@@H](n2cnc3c(N)nc(NCCc4ccc(CCC(=O)NCCN)cc4)nc32)[C@H](O)[C@@H]1O` [compound 2, 2-[4-(2-Aminoethylaminocarbonylethyl)phenylethylamino]-5′-N-ethylcarboxamidoadenosine, reference compound], on hA1 AR (setting [1]), the hA1 % inhibition was 56.9 ± 9.1%. At hA3 AR (setting [1]), this molecule displayed a hA3 % inhibition of 85.3 ± 3.2%. Besides, the “hA2B % activation of adenylate cyclase” value on hA2B AR was determined as 5.5 ± 4.7%.

By inhibition is commonly meant the drop in the measured response relative to a control, in per cent. Usually IC50 stands for the concentration needed to halve the response being measured. For the molecule `CCNC(=O)[C@H]1O[C@@H](n2cnc3c(N)nc(NCCc4ccc(CCC(=O)O)cc4)nc32)[C@H](O)[C@@H]1O` [compound 1, 2-[4-(2-carboxylethyl)phenylethylamino]-5′-N-ethylcarboxamidoadenosine, reference compound], the inhibition at 1 µM at hA1 AR (read-out: hA1 % inhibition) was 24.9 ± 4.6%; on hA3 AR (read-out: hA3 % inhibition), 59.8 ± 4.4%. Further, in the assay with human washed platelets, the IC50 was determined as 192 ± 90 nM.
